From the supplement of paper PMC10307832

Columns and labels:
Experiment in all cases: relative viability (nuclei count vs DMSO), 5 days (fraction); higher = more cells survive
[1] = tested on: COR-L23
Outline: (§1)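 Five library-drug doses in √10 steps were combined with a fixed anchor-drug dose, or a single drug was given alone, by pin tool to lung cancer cell lines in 1536-well plates the day after seeding. Nuclei were stained and counted after 5 days. Relative viability is the nuclei count in treated wells over that in vehicle wells, taken as the median of duplicate plates.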

[2] = tested on: ChaGo-K-1
Outline: as §1

[3] = tested on: EMC-BAC-2
Outline: as §1

[4] = tested on: HARA
Outline: as §1

[5] = tested on: HCC-15
Outline: as §1

[6] = tested on: HCC-366
Outline: as §1

[7] = tested on: HCC-78
Outline: as §1

[8] = tested on: HOP-62
Outline: as §1

[9] = tested on: LC-2-ad
Outline: as §1

[10] = tested on: NCI-H1395
Outline: as §1

[11] = tested on: NCI-H1793
Outline: as §1

[12] = tested on: NCI-H1944
Outline: as §1

[13] = tested on: NCI-H1993
Outline: as §1

[14] = tested on: NCI-H2023
Outline: as §1

[15] = tested on: NCI-H2126
Outline: as §1

[16] = tested on: NCI-H2228
Outline: as §1

[17] = tested on: NCI-H23
Outline: as §1

[18] = tested on: NCI-H2405
Outline: as §1

[19] = tested on: NCI-H838
Outline: as §1

[20] = tested on: SK-LU-1
Outline: as §1

SMILES: O=c1cc(-c2cccc3c2Sc2ccccc2S3)oc(N2CCOCC2)c1 + CC1(C)CCC(c2ccc(Cl)cc2)=C(CN2CCN(c3ccc(C(=O)NS(=O)(=O)c4ccc(N[C@H](CCN5CCOCC5)CSc5ccccc5)c(S(=O)(=O)C(F)(F)F)c4)cc3)CC2)C1 [Navitoclax] (partner 0.5 µM)
- relative viability ([1]; first compound 0.08 µM): 1.26
- relative viability ([1]; first compound 0.253 µM): 1.4
- relative viability ([1]; first compound 0.8 µM): 1.07
- relative viability ([1]; first compound 2.53 µM): 1.2
- relative viability ([1]; first compound 8 µM): 1.47
- relative viability ([2]; first compound 0.08 µM): 0.903
- relative viability ([2]; first compound 0.253 µM): 1.04
- relative viability ([2]; first compound 0.8 µM): 1.12
- relative viability ([2]; first compound 8 µM): 1.25
- relative viability ([3]; first compound 0.08 µM): 1.3
- relative viability ([3]; first compound 0.253 µM): 1.41
- relative viability ([3]; first compound 0.8 µM): 1.37
- relative viability ([3]; first compound 2.53 µM): 1.2
- relative viability ([3]; first compound 8 µM): 1.35
- relative viability ([4]; first compound 0.08 µM): 1.16
- relative viability ([4]; first compound 0.253 µM): 1.36
- relative viability ([4]; first compound 0.8 µM): 1.01
- relative viability ([4]; first compound 2.53 µM): 1.11
- relative viability ([4]; first compound 8 µM): 1.2
- relative viability ([5]; first compound 0.08 µM): 0.68
- relative viability ([5]; first compound 0.253 µM): 0.866
- relative viability ([5]; first compound 0.8 µM): 0.615
- relative viability ([5]; first compound 2.53 µM): 0.66
- relative viability ([5]; first compound 8 µM): 0.705
- relative viability ([6]; first compound 0.08 µM): 0.987
- relative viability ([6]; first compound 0.253 µM): 1.19
- relative viability ([6]; first compound 0.8 µM): 1.07
- relative viability ([6]; first compound 2.53 µM): 0.98
- relative viability ([6]; first compound 8 µM): 0.996
- relative viability ([7]; first compound 0.08 µM): 0.806
- relative viability ([7]; first compound 0.253 µM): 0.978
- relative viability ([7]; first compound 0.8 µM): 0.767
- relative viability ([7]; first compound 2.53 µM): 0.779
- relative viability ([7]; first compound 8 µM): 0.816
- relative viability ([8]; first compound 0.08 µM): 1.09
- relative viability ([8]; first compound 0.253 µM): 1.43
- relative viability ([8]; first compound 0.8 µM): 1.21
- relative viability ([8]; first compound 2.53 µM): 0.902
- relative viability ([8]; first compound 8 µM): 1.28
- relative viability ([9]; first compound 0.08 µM): 0.363
- relative viability ([9]; first compound 0.253 µM): 0.666
- relative viability ([9]; first compound 0.8 µM): 0.375
- relative viability ([9]; first compound 2.53 µM): 0.421
- relative viability ([9]; first compound 8 µM): 0.403
- relative viability ([10]; first compound 0.08 µM): 1.14
- relative viability ([10]; first compound 0.253 µM): 1.1
- relative viability ([10]; first compound 0.8 µM): 1.12
- relative viability ([10]; first compound 2.53 µM): 1.13
- relative viability ([10]; first compound 8 µM): 1.03
- relative viability ([11]; first compound 0.08 µM): 0.307
- relative viability ([11]; first compound 0.253 µM): 0.515
- relative viability ([11]; first compound 0.8 µM): 0.344
- relative viability ([11]; first compound 2.53 µM): 0.362
- relative viability ([11]; first compound 8 µM): 0.356
- relative viability ([12]; first compound 0.08 µM): 1
- relative viability ([12]; first compound 0.253 µM): 1.11
- relative viability ([12]; first compound 0.8 µM): 1.06
- relative viability ([12]; first compound 8 µM): 1.16
- relative viability ([13]; first compound 0.08 µM): 1.09
- relative viability ([13]; first compound 0.253 µM): 0.989
- relative viability ([13]; first compound 0.8 µM): 0.768
- relative viability ([13]; first compound 2.53 µM): 0.824
- relative viability ([13]; first compound 8 µM): 0.871
- relative viability ([14]; first compound 0.08 µM): 1.04
- relative viability ([14]; first compound 0.253 µM): 1.12
- relative viability ([14]; first compound 0.8 µM): 1.04
- relative viability ([14]; first compound 2.53 µM): 0.943
- relative viability ([14]; first compound 8 µM): 1.02
- relative viability ([15]; first compound 0.08 µM): 0.808
- relative viability ([15]; first compound 0.253 µM): 0.974
- relative viability ([15]; first compound 0.8 µM): 0.8
- relative viability ([15]; first compound 2.53 µM): 0.826
- relative viability ([15]; first compound 8 µM): 0.849
- relative viability ([16]; first compound 0.08 µM): 1.17
- relative viability ([16]; first compound 0.253 µM): 0.902
- relative viability ([16]; first compound 0.8 µM): 0.818
- relative viability ([16]; first compound 2.53 µM): 0.87
- relative viability ([16]; first compound 8 µM): 0.852
- relative viability ([17]; first compound 0.08 µM): 0.829
- relative viability ([17]; first compound 0.253 µM): 1.01
- relative viability ([17]; first compound 0.8 µM): 0.879
- relative viability ([17]; first compound 2.53 µM): 0.725
- relative viability ([17]; first compound 8 µM): 0.884
- relative viability ([18]; first compound 0.08 µM): 0.887
- relative viability ([18]; first compound 0.253 µM): 0.761
- relative viability ([18]; first compound 0.8 µM): 0.794
- relative viability ([18]; first compound 2.53 µM): 0.825
- relative viability ([18]; first compound 8 µM): 0.78
- relative viability ([19]; first compound 0.08 µM): 1.11
- relative viability ([19]; first compound 0.253 µM): 1.64
- relative viability ([19]; first compound 0.8 µM): 0.944
- relative viability ([19]; first compound 2.53 µM): 1.02
- relative viability ([19]; first compound 8 µM): 1.09
- relative viability ([20]; first compound 0.08 µM): 0.684
- relative viability ([20]; first compound 0.253 µM): 0.924
- relative viability ([20]; first compound 0.8 µM): 0.787
- relative viability ([20]; first compound 2.53 µM): 1.02
- relative viability ([20]; first compound 8 µM): 1.09
